In patent publication US5312816A, “Method of combatting osteoporosis in mammalian subjects, utilizing organic boron compounds” (priority 1993, dated 1994):
Where two headings read alike, the source gives them in different places.

Assays:
5'-lipoxygenase = target: T1, 5'-lipoxygenase (Mus musculus, UniProt P48999); assay: Mouse hepatic 5'-lipoxygenase activity; type: biochemical; settings: Table VI; mouse hepatic, 60 min incubation; read-out: 5'-lipoxygenase IC50
T1 construct: Cf1 male mouse hepatic 10% homogenates; from tissue; host or cells: CF1 male mouse liver, 10% homogenate
T1 sequence (P48999 1-674): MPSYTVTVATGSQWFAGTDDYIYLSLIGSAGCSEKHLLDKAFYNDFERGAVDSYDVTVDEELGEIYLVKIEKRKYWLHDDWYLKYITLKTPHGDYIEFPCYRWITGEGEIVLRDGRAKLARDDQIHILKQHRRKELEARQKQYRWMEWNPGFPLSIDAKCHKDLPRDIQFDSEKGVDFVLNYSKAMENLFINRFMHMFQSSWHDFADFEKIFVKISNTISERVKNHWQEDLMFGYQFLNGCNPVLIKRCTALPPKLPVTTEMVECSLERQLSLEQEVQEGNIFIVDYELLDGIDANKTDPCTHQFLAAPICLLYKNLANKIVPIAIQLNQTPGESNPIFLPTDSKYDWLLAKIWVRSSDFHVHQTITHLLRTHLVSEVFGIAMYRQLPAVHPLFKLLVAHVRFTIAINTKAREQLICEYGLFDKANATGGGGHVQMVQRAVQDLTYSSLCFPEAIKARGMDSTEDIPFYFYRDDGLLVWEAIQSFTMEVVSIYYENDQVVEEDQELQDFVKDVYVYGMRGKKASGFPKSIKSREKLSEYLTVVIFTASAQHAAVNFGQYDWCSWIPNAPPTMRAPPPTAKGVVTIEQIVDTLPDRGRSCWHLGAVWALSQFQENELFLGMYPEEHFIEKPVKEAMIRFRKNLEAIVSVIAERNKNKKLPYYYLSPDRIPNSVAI
Text: (§1) 1. Cf1 male mouse hepatic 10% homogenates in 0.25M sucrose+0.001MEDTA,pH 7.2.
5'-lipoxygenase Mylari, B.L., et al, J. Med.

Trypsin [1] = assay: Human osteoporosis fibroblasts trypsin (BAEE) activity; type: cell-based
Text: (§2) 1. Trypsin- N-benzoyl-L-arginine ethyl ester pH 8.0, hydrolytic product 253 nm.

Cathepsin D [2] = target: T2, Cathepsin D (Mus musculus, UniProt P18242); assay: Mouse hepatic lysosomal cathepsin D activity; type: biochemical; settings: Table V; mouse hepatic, 60 min incubation; read-out: Cathepsin D IC50
T2 construct: azocasein assay pH 5.0
T2 sequence (P18242 65-410): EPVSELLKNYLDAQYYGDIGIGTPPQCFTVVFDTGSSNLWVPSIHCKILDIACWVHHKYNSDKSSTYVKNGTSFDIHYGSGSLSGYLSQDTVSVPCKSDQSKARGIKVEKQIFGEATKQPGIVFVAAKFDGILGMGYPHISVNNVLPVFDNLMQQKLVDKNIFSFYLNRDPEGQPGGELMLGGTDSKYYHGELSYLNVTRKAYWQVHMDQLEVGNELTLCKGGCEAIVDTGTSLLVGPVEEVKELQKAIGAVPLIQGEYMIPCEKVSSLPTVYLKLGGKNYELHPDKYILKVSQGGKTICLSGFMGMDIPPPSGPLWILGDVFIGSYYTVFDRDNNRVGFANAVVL
Text: as §1
Lysosomal Enzymes - free and total [triton X-100].
2. Acid Cathepsin D -azocasein-pH 5.0, hydrolytic azo-peptide produce 366 nm.
Cathepsin azo casein activity -

Pg-E2 synthesis = assay: 3H-Arachidonic acid conversion to Pg-E2, macrophage; type: cell-based, mouse
[3] = tested on: Prostaglandin cyclooxygenase; assay: Human osteoporosis fibroblasts prostaglandin cyclooxygenase activity; type: cell-based; settings: Table XI, 60 min incubation, read-out: Prostaglandin Cyclooxygense IC50
Elastase [4] = assay: Mouse hepatic elastase activity; type: biochemical; settings: Table VI, 60 min incubation
Text: as §1
(§3) 2. Elastase- N-succinyl-L-alanyl-L-alanine-p-nitroanilide, pH 8.0, p-nitro anilide 410 nm.
Elastase activity - in vitro

Prostaglandin synthetase = target: T3, Prostaglandin synthetase (Bos taurus, UniProt O62664); assay: Prostaglandin synthetase (cyclooxygenase), purified beef seminal vesicle; type: biochemical; settings: Table IX; commercial enzyme preparation; read-out: Beef Prostaglandin Cyclooxygenase IC50
T3 construct: Prostaglandin synthetase purified beef seminal vesicle; from tissue
T3 sequence (O62664 25-600): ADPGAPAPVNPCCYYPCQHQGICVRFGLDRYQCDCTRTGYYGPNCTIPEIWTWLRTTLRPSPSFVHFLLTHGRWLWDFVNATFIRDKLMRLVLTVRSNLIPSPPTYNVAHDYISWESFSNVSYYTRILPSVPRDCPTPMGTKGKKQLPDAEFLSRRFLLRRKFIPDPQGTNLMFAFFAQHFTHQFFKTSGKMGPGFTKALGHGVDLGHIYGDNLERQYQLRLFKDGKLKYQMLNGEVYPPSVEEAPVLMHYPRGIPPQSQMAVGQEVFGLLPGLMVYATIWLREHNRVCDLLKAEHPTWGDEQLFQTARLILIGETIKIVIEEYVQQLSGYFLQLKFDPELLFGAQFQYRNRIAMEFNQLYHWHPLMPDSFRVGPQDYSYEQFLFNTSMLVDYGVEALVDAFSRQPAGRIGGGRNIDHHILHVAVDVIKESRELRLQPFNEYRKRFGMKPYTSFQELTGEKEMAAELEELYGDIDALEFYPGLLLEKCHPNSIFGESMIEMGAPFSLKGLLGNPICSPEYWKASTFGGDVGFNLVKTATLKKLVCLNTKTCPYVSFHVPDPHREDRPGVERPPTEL
Text: (§4) Prostaglandin synthetase purified beef seminal vesicle ^3 H arachidonic acid (86.2 Ci/mmol), tlc separation.

Elastase [5] = assay: Mouse macrophage elastase activity; type: cell-based; settings: Table VIII; mouse macrophages, 60 min incubation; read-out: Elastase IC50
[6] = target: Clostridium histolyticum Collagenase Type II; assay: Commercial collagenase type II; type: biochemical; settings: Table IX; commercial enzyme preparation
Text: 4. Collagenase II, Clostridium histolyticum, cartilage collagen.

Acid phosphatase [7] = assay: Human osteoporosis fibroblasts acid phosphatase activity; type: cell-based
Text: 1. Acid phosphatase -beta glycerol-3-phosphate, pH 5.0, released IP 720 nm.

Trypsin [8] = assay: Mouse hepatic trypsin activity; type: biochemical; settings: Table VI; mouse hepatic, 60 min incubation; read-out: Trypsin IC50
Text: as §1, §2

Acid phosphatase [9] = assay: Mouse macrophage acid phosphatase activity; type: cell-based; settings: Table VII; mouse macrophage cultured cells, 60 min incubation; read-out: Acid Phosphatase IC50
Cathepsin D [10] = target: T4, Cathepsin D (Homo sapiens, UniProt P07339); assay: Human osteoporosis fibroblasts cathepsin D (azo-casein) activity; type: cell-based
T4 construct: azocasein assay pH 5.0
T4 sequence (P07339 65-412): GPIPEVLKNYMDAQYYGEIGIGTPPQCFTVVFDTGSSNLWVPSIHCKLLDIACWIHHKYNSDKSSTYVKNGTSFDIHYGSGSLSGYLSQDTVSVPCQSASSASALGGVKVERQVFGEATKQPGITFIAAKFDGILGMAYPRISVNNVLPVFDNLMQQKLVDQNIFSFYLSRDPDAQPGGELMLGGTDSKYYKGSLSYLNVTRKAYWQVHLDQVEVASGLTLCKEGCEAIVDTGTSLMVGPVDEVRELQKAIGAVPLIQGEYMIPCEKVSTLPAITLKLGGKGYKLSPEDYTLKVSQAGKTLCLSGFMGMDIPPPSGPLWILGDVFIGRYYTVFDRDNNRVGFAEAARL
Text: Osteoporosis Human Fibroblast-CRL-1140, Be SA1

Elastase [11] = assay: Human osteoporosis fibroblasts elastase activity; type: cell-based
Text: as §3

[12] = tested on: lysosomal and proteolytic enzymes; assay: Osteoporosis fibroblasts lysosomal and proteolytic enzymes (statement); type: cell-based, human
[13] = tested on: Prostaglandin cyclooxygenase; assay: Mouse macrophage prostaglandin cyclooxygenase activity; type: cell-based; settings: Table VIII; mouse macrophages, 60 min incubation; read-out: Prostaglandin Cyclooxygenase IC50
Text: 3. Mouse macrophages J774A.1 BALB/c
as §4

Trypsin [14] = assay: Mouse macrophage trypsin (BAEE) activity; type: cell-based; settings: Table VIII; mouse macrophages, 60 min incubation; read-out: Trypsin BAEE IC50

**Q.** For `CCCCCCCCCCCCCCCC[N+](C)(C)[BH2-]C(=O)O` [Compound 7, N,N-Dimethylhexadecylamine-carboxyborane], which IC50 (5'-lipoxygenase) is on record?
**A.** 55.8 µM

**Q.** What about the IC50 (Trypsin [1]; Table VIIIA, osteoporosis fibroblasts in vitro, read-out: Trypsin (BAEE) IC-50) of the same compound?
**A.** 7.4 µM

**Q.** What about the IC50 (Trypsin [1]; Table XI, human osteoporosis fibroblasts, 60 min incubation, read-out: Trypsin BAEE IC50) of the same compound?
**A.** 7.4 µM

**Q.** And the IC50 (Cathepsin D [2])?
**A.** 2.82 µM

**Q.** What about the “macrophage Pg-E2 synthesis reduced” value (Pg-E2 synthesis) of the same compound?
**A.** 20%

**Q.** And the “3H-Arachidonic acid conversion to Pg-E2 reduced” value (Pg-E2 synthesis; macrophage)?
**A.** 29%

**Q.** What about the IC50 [3] of the same compound?
**A.** 6.77 µM

**Q.** What about the IC50 (Elastase [4]) of the same compound?
**A.** 49.6 µM

**Q.** And the IC50 (Prostaglandin synthetase)?
**A.** 2.86 µM

**Q.** And the IC50 (Elastase [5])?
**A.** 1.8 µM

**Q.** What about the IC50 [6] of the same compound?
**A.** 109 µM

**Q.** What about the IC50 (Acid phosphatase [7]; Table VIIIA, osteoporosis fibroblasts in vitro, read-out: Acid Phosphatase IC-50) of the same compound?
**A.** 16.6 µM

**Q.** What about the IC50 (Acid phosphatase [7]; Table X, human osteoporosis fibroblasts, read-out: Acid Phosphatase IC50) of the same compound?
**A.** 16.6 µM

**Q.** What about the IC50 (Trypsin [8]) of the same compound?
**A.** 1.16 µM

**Q.** And the IC50 (Acid phosphatase [9])?
**A.** 0.94 µM

**Q.** What about the IC50 (Cathepsin D [10]; Table VIIIA, osteoporosis fibroblasts in vitro, read-out: Cathepsin Azo-casein IC-50) of the same compound?
**A.** 2.06 µM

**Q.** What about the IC50 (Cathepsin D [10]; Table X, human osteoporosis fibroblasts, DMEM +10% FCS + P/S, read-out: Cathepsin D IC50) of the same compound?
**A.** 2.06 µM

**Q.** What about the IC50 (Elastase [11]; Table VIIIA, osteoporosis fibroblasts in vitro, read-out: Elastase IC-50) of the same compound?
**A.** 3.86 µM

**Q.** What about the IC50 (Elastase [11]; Table XI, human osteoporosis fibroblasts, 60 min incubation, read-out: Elastase IC50) of the same compound?
**A.** 3.86 µM

**Q.** And the “inhibition of lysosomal and proteolytic enzymes of osteoporosis fibroblasts” value [12]?
**A.** potent inhibitors

**Q.** And the IC50 [13]?
**A.** 2.55 µM

**Q.** And the IC50 (Trypsin [14])?
**A.** 1.26 µM
